Test results published in article PMC10135033, “Sulfonamidoboronic Acids as “Cross-Class” Inhibitors of an Expanded-Spectrum Class C Cephalosporinase, ADC-33, and a Class D Carbapenemase, OXA-24/40: Strategic Compound Design to Combat Resistance in Acinetobacter baumannii” (Antibiotics, 2023).
Where two headings read alike, the source gives them in different places.

What was measured:
Format in all cases: cell-based
[1] = tested on: clinical A. baumannii isolate PR474 (OXA-23, OXA-24, OXA-65, ADC-218); test: Antimicrobial susceptibility testing, clinical isolate, broth microdilution; conditions: Acinetobacter baumannii
Method: (§1) Clinical A. baumannii isolates containing ADC-33 or OXA-24/-40 in combination with various other well-defined β-lactamases were also tested against CR167 and 6b (Table 5).
(§2) The clinical A. baumannii isolates used to test the β-lactamase inhibitors were selected from a previously well-characterized collection in our lab. They were chosen as they had either ADC-33 and/or OXA-24 in combination with other known β-lactamases (for specific combinations, see Table 5).
(§3) Testing of susceptibility to standard antibiotics was performed with broth microdilution according to CLSI guidelines. MICs for CAZ, CTX, FEP, and IMI were determined using cation-adjusted Mueller–Hinton broth according to CLSI methods, and CR167 or 6b was used at a fixed concentration of 10 mg/L. All MICs were interpreted according to the 2022 Clinical and Laboratory Standards Institute (CLSI) guidelines.

[2] = tested on: clinical A. baumannii isolate PR396 (OXA-82, ADC-33); test: as above; conditions: Acinetobacter baumannii, inhibitor at 10 mg/L
Method: as §1, §2, §3

[3] = tested on: clinical A. baumannii isolate PR462 (OXA-24, OXA-65, ADC-214); test: as above; conditions: Acinetobacter baumannii, inhibitor at 10 mg/L
Method: as §1, §2, §3

[4] = tested on: clinical A. baumannii isolate PR408 (OXA-24, OXA-71, ADC-212); test: as above; conditions: Acinetobacter baumannii
Method: as §1, §2, §3

[5] = tested on: clinical A. baumannii isolate PR323 (OXA-24, OXA-65, ADC-218); test: as above; conditions: Acinetobacter baumannii
Method: as §1, §2, §3

[6] = tested on: clinical A. baumannii isolate PR328 (OXA-23, OXA-82, ADC-33); test: as above; conditions: Acinetobacter baumannii
Method: as §1, §2, §3

[7] = tested on: clinical A. baumannii isolate PR378 (OXA-24, OXA-65, TEM-1); test: as above; conditions: Acinetobacter baumannii
Method: as §1, §2, §3

[8] = tested on: E. coli DH10B, ADC-7 in pBCSK-; test: Antimicrobial susceptibility testing, broth microdilution; conditions: Escherichia coli
Method: (§4) Based upon the inhibitor kinetics (Ki determinations), CR167 and the sulfonamidoboronic acid 6b were tested against E. coli strains expressing ADC-7 and ADC-33 cloned into pBCSK- (DH10B) (Table 3).
(§5) blaADC-7 pBCSK- and blaADC-33 pBCSK- were cloned and expressed in E. coli DH10B cells as previously described.
as §3

[9] = tested on: E. coli DH10B, ADC-33 in pBCSK-; test: as above; conditions: Escherichia coli
Method: as §4, §5, §3

[10] = tested on: A. baumannii ATCC 17978 native ADC KO, ADC-33 pQF1266; test: as above; conditions: Acinetobacter baumannii
Method: The inhibitory effects of both compounds were tested against ADC-33 and OXA-24/-40 in A. baumannii, their native host. ATCC 17978, with its intrinsic chromosomal ADC knocked out (intrinsic OXA still present), was used in these experiments. In this isolate, the ADC MICs were not lowered by the inhibitors as much as they were against the E. coli background (Table 4).
Plasmid pBCSK- containing the blaADC-33 gene was digested with PvuII, which released the blaADC-33 gene, along with the lac promoter, which drives expression. This PvuII fragment was cloned into the SmaI site of the pQF1266 plasmid.
pWH1266 is a vector that replicates in A. baumannii, and the […] pWH1266 construct was generated as follows. The TEM gene was removed using inverse PCR, and an Xba1 site was engineered into the vector. blaOXA-24/40 and its upstream XerC/XerD were amplified from strain NM55. The amplified gene was cloned into the Xba1 site of the altered pWH1266 vector. The construct was confirmed using PCR and sequencing. Both blaADC-33 pQF1266 and […] pWH1266 were then expressed in A. baumannii ATCC 17978 that had the intrinsic chromosomal ADC gene knocked out.
The chromosomal blaADC-51 gene in ATCC 17978 was deleted and replaced with an apramycin resistance cassette using the recombineering method described by Tucker et al.. Primers used for this deletion were: Del AmpC-apra.For: […]; and Del AmpC-apra.Rev: […]. The correct deletion mutant was confirmed using PCR and sequencing.
as §3

[11] = inhibitor at 10 mg/L, PR474, read-out: MIC of CAZ with BLI
[12] = inhibitor at 10 mg/L, PR474, read-out: MIC of CTX with BLI
[13] = inhibitor at 10 mg/L, PR408, read-out: MIC of CAZ with BLI
[14] = inhibitor at 10 mg/L, PR408, read-out: MIC of CTX with BLI
[15] = inhibitor at 10 mg/L, PR323, read-out: MIC of CAZ with BLI
[16] = inhibitor at 10 mg/L, PR323, read-out: MIC of CTX with BLI
[17] = inhibitor at 10 mg/L, PR328, read-out: MIC of CAZ with BLI
[18] = inhibitor at 10 mg/L, PR378, read-out: MIC of CAZ with BLI
[19] = inhibitor at 10 mg/L, PR378, read-out: MIC of CTX with BLI
[20] = ATCC17978, read-out: MIC of CAZ with BLI
[21] = ATCC17978, read-out: MIC of CTX with BLI
[22] = ATCC17978, read-out: MIC of FEP with BLI

| Structure (SMILES) | MIC ([1]; read-out: MIC of IMI with BLI) [µg/mL] | MIC [1, 11] [µg/mL] | MIC [1, 12] [µg/mL] | MIC ([2]; read-out: MIC of CAZ with BLI) [µg/mL] | MIC ([2]; read-out: MIC of CTX with BLI) [µg/mL] | MIC ([2]; read-out: MIC of IMI with BLI) [µg/mL] | MIC ([3]; read-out: MIC of CAZ with BLI) [µg/mL] | MIC ([3]; read-out: MIC of CTX with BLI) [µg/mL] | MIC ([3]; read-out: MIC of IMI with BLI) [µg/mL] | MIC ([4]; read-out: MIC of IMI with BLI) [µg/mL] | MIC [4, 13] [µg/mL] | MIC [4, 14] [µg/mL] | MIC ([5]; read-out: MIC of IMI with BLI) [µg/mL] | MIC [5, 15] [µg/mL] | MIC [5, 16] [µg/mL] | MIC ([6]; read-out: MIC of IMI with BLI) [µg/mL] | MIC [6, 17] [µg/mL] | MIC [7, 18] [µg/mL] | MIC [7, 19] [µg/mL] | MIC ([8]; read-out: MIC of CAZ with BLI) [µg/mL] | other results |
| --- | --- | --- | --- | --- | --- | --- | --- | --- | --- | --- | --- | --- | --- | --- | --- | --- | --- | --- | --- | --- | --- |
| C[C@@H](NS(=O)(=O)Cc1cccc(C(=O)O)c1)B(O)O [6b] | 128 | 4100 | 2050 | 2050 | 512 | 64 | 256 | 512 | 64 | 128 | 512 | 1020 | 128 | 4100 | 2050 | 128 | 2050 | 32 | 64 | 4 | MIC ([6]; inhibitor at 10 mg/L, PR328, read-out: MIC of CTX with BLI): 256 µg/mL; MIC ([7]; inhibitor at 10 mg/L, PR378, read-out: MIC of IMI with BLI): 256 µg/mL; MIC ([8]; read-out: MIC of CTX with BLI): 2 µg/mL; MIC ([8]; read-out: MIC of FEP with BLI): 0.12 µg/mL; MIC ([9]; read-out: MIC of CAZ with BLI): 64 µg/mL; MIC ([9]; read-out: MIC of CTX with BLI): 4 µg/mL; MIC [10, 20]: 64 µg/mL; MIC [10, 21]: 32 µg/mL; MIC [10, 22]: 4 µg/mL |
| O=C(O)c1cccc(CS(=O)(=O)NCB(O)O)c1 [CR167] | 128 | 4100 | 2050 | 1020 | 256 | 64 | 64 | 256 | 64 | 128 | 512 | 1020 | 128 | 4100 | 2050 | 128 | 1020 | 32 | 64 | 4 | MIC ([6]; read-out: MIC of CTX with BLI): 128 µg/mL; MIC ([7]; read-out: MIC of IMI with BLI): 128 µg/mL; MIC ([8]; read-out: MIC of CTX with BLI): 2 µg/mL; MIC ([8]; read-out: MIC of FEP with BLI): 0.12 µg/mL; MIC ([9]; read-out: MIC of CAZ with BLI): 64 µg/mL; MIC ([9]; read-out: MIC of CTX with BLI): 2 µg/mL; MIC [10, 20]: 32 µg/mL; MIC [10, 21]: 16 µg/mL; MIC [10, 22]: 4 µg/mL |
